Measurements taken from ChEMBL document CHEMBL4602623, “Inhibition of hedgehog signaling by stereochemically defined des-triazole itraconazole analogues” (Bioorg Med Chem Lett, 2020).

Experiment: Inhibition of Hedgehog signaling pathway in mouse ASZ001 cells assessed as decrease in Gli1 mRNA expression after 48 hrs by qRT-PCR analysis
Assay type: cell-based
Conditions: ASZ001, 48 h

IC50 | SMILES
110 nM | CC[C@@H](C)n1ncn(-c2ccc(N3CCN(c4ccc(OC[C@@H]5CO[C@@](Cn6ccnc6)(c6ccc(Cl)cc6Cl)O5)cc4)CC3)cc2)c1=O
20 nM | CC[C@@H](C)n1ncn(-c2ccc(N3CCN(c4ccc(OC[C@@H]5CO[C@](CCl)(c6ccc(Cl)cc6Cl)O5)cc4)CC3)cc2)c1=O
110 nM | CC[C@@H](C)n1ncn(-c2ccc(N3CCN(c4ccc(OC[C@@H]5CO[C@](Cn6ccnc6)(c6ccc(Cl)cc6Cl)O5)cc4)CC3)cc2)c1=O
550 nM | CC[C@@H](C)n1ncn(-c2ccc(N3CCN(c4ccc(OC[C@@H]5CO[C@@](CN)(c6ccc(Cl)cc6Cl)O5)cc4)CC3)cc2)c1=O
140 nM | CCC(C)n1ncn(-c2ccc(N3CCN(c4ccc(OCC5COC(Cn6cncn6)(c6ccc(Cl)cc6Cl)O5)cc4)CC3)cc2)c1=O (stereo not drawn) [ITRACONAZOLE]

The next lines start with the compound.

SMILES | IC50
CC[C@@H](C)n1ncn(-c2ccc(N3CCN(c4ccc(OC[C@@H]5CO[C@H](c6ccc(Cl)cc6Cl)O5)cc4)CC3)cc2)c1=O | 300 nM
CC[C@@H](C)n1ncn(-c2ccc(N3CCN(c4ccc(OC[C@@H]5CO[C@@](CCl)(c6ccc(Cl)cc6Cl)O5)cc4)CC3)cc2)c1=O | 25 nM
CC[C@@H](C)n1ncn(-c2ccc(N3CCN(c4ccc(OC[C@@H]5CO[C@@](c6ccc(Cl)cc6Cl)(C(F)(F)F)O5)cc4)CC3)cc2)c1=O | 69 nM
CC[C@@H](C)n1ncn(-c2ccc(N3CCN(c4ccc(OC[C@@H]5CO[C@@](CN6C(=O)c7ccccc7C6=O)(c6ccc(Cl)cc6Cl)O5)cc4)CC3)cc2)c1=O | 820 nM
CC[C@@H](C)n1ncn(-c2ccc(N3CCN(c4ccc(OC[C@@H]5CO[C@](c6ccc(Cl)cc6Cl)(C(F)(F)F)O5)cc4)CC3)cc2)c1=O | 67 nM
CC[C@@H](C)n1ncn(-c2ccc(N3CCN(c4ccc(OC[C@@H]5CO[C@](CN6C(=O)c7ccccc7C6=O)(c6ccc(Cl)cc6Cl)O5)cc4)CC3)cc2)c1=O | 1070 nM
CC[C@@H](C)n1ncn(-c2ccc(N3CCN(c4ccc(OC[C@@H]5CO[C@@H](c6ccc(Cl)cc6Cl)O5)cc4)CC3)cc2)c1=O | 310 nM
CC[C@@H](C)n1ncn(-c2ccc(N3CCN(c4ccc(OC[C@@H]5CO[C@@](C(N)=O)(c6ccc(Cl)cc6Cl)O5)cc4)CC3)cc2)c1=O | 940 nM
